# Data from patent US9907760B2 (LIBRAGEN, priority 2010, dated 2018).
# Marks after values point to notes of the source that are not given here.
# Columns and labels:
# Type in all cases: cell-based
# [1] = tested on: normal human keratinocytes; test: Hyaluronic acid production by normal human keratinocytes (HA-ELISA of supernatant); conditions: for % stimulation of hyaluronic acid synthesis: vs Control
# Description: Normal human keratinocytes were cultured to confluence. Cells were treated with the test products for 48 hours. The supernatants, containing hyaluronic acid, were collected and assayed immediately. Hyaluronic acid was quantified with an ELISA microtiter plate.
# (§1) Primocultures of normal human keratinocytes (NHK) were obtained from cells isolated from skin specimens from plastic surgery.
# (§2) NHK were seeded at a density of 130,000 cells/well in specific KSFM culture medium (Gibco®, Invitrogen) in a 24-well plate. The plate was placed in a humid incubator (37° C., 5% CO2) for 24 hours.
# The different products at the respective concentrations (diluted in KSFM medium, 600 μl) were contacted with the cells for 48 hours. Untreated cells were used as the control condition.
# (§3) Each treatment condition was evaluated on three wells of NHK cells.
# After 24 hours of treatment, an intermediate sample of […] of supernatant was removed from each well and the plate returned to the incubator (37° C., 5% CO2).
# After 48 hours of treatment, the remaining supernatant (≈350 μA) was collected and centrifuged.
# Cell supernatants were assayed according to the method described in the Hyaluronan Enzyme-Linked Immunosorbent Assay kit (HA-ELISA, Echelon Biosciences Inc.). This is an ELISA assay with spectrophotometric detection at 405 nm (Safire, Tecan).
# (§4) The assay was performed in duplicate for each well.
# (§5) Optical densities (OD) measured on each sample were plotted on a graph (specific standard curve in the kit). The hyaluronic acid concentration was expressed in ng/ml.
# (§6) The amount of hyaluronic acid released by the cells was determined for each well and for each treatment condition, relative to the cell content expressed as μg of protein. Thus, the final result was expressed as ng/ml of hyaluronic acid per μg of protein.
# A mean value was calculated for wells treated with the same concentration of test product. This mean was compared with the mean of the control wells (Student t test−comparison of means−significant difference at 95% if p<0.05* and at 99% if p<0.01*).
# (§7) The percent stimulation induced by the test products was determined by comparing the mean values of the control and treatment conditions: % Stimulation=(Treated−Control)/Control
# The vitamin A propionate was dissolved in DMSO.
# normal human fibroblasts [2] = test: Hyaluronic acid production by normal human fibroblasts treated with supernatant of treated keratinocytes (HA-ELISA); conditions: supernatant on fibroblasts 48 hrs; for % stimulation of hyaluronic acid synthesis: vs Control
# Description: Normal human dermal fibroblasts were cultured to confluence. Cells were treated for 48 hours with supernatants of normal human keratinocytes previously grown in the presence of the test products. The fibroblast supernatants, containing hyaluronic acid, were collected and assayed immediately. Hyaluronic acid was quantified with an ELISA microtiter plate. Protein content was determined for each well of the microtiter plate.
# as §1, §2
# Primocultures of normal human fibroblasts (NHF) were obtained from cells isolated from skin specimens from plastic surgery.
# NHF were seeded at a density of 90,000 cells/well in E-199 culture medium supplemented with 0.5% FCS (Gibco® Invitrogen) in a 24-well plate. The plate was placed in a humid incubator (37° C., 5% CO2) for 24 hours.
# The two cell types—NHK and NHF—were plated 48 hours apart.
# The different products at the respective concentrations (diluted in KSFM medium, 600 μl) were contacted with NHK cells for 48 hours. Untreated cells were used as the control condition. Two plates were used to separately test NAG, and NAG+vitamin A propionate, on the one hand, and NAG6P, and NAG6P+vitamin A propionate, on the other hand.
# as §3
# After 48 hours, a fraction of NHK cell supernatant (300 μl/well) was removed and transferred well for well into NHF cell supernatants (300 μl E-199/well−fresh medium without FCS).
# This gave a final volume of 600 μl/well (50:50 ratio of KSFM/E-199 medium) which remained on the NHF cells for 48 hours.
# After 48 hours of treatment, the NHF cell supernatant was collected and centrifuged.
# Hyaluronic acid was assayed in the cell supernatants as described in example 1.
# as §4, §5, §6
# A mean value was calculated for wells treated with the same concentration of test product. This mean was compared with the mean of the control wells (Student t test−comparison of means−significant difference at 95% if p<0.05* and at 99% if p<0.01**).
# as §7
# normal human fibroblasts [3] = test: Proliferation of normal human fibroblasts treated with supernatant of treated keratinocytes (Cell Proliferation ELISA, BrdU); conditions: supernatant on fibroblasts 48 hrs
# Description: This experiment evaluated the proliferation of normal human fibroblasts (dermal primocultures) after 48 hours of treatment with supernatant transferred from human keratinocytes.
# The “Cell Proliferation ELISA, BrdU” test quantifies cell proliferation by measuring incorporation of bromodeoxyuridine (BrdU) during DNA synthesis followed by luminescence detection.
# Cells were placed in the presence of the treatment for a specified time (incubator at 37° C., 5% CO2). The pyrimidine analogue 5-bromo-2′-deoxyuridine (BrdU) was then added and the cells were further incubated (37° C., 5% CO2) for a minimum of 2 hours, during which time BrdU is incorporated in place of thymidine into the DNA of proliferating cells.
# The culture medium was removed, then the cells were fixed and the DNA denatured at the same time (antibody accessibility). An anti-BrdU-POD (peroxidase) antibody was added; this antibody binds to BrdU in newly synthesized DNA. The immune complex was then detected by addition of luminol substrate with measurement of luminescence (Genios, Tecan).
# NHF were seeded at a density of 5,000 cells/well in E-199 culture medium (Gibco® Invitrogen) in a 96-well Optilux white plate (BD Falcon 353947). The plate was placed in a humid incubator (37° C., 5% CO2) for 24 hours.
# The different products at the respective concentrations (diluted in KSFM culture medium, 600 μl) were contacted with NHK cells for 48 hours. Control cells were left untreated. Each treatment conditions was evaluated on three wells of NHK cells.
# After 48 hours, a fraction of the NHK cell supernatant was removed. Each sample of supernatant (2 times 100 μl) from a well on the NHK plate (24 wells) was transferred to two wells in the NHF plate already containing 100 μl of E-199 medium per well. […]
# Cell proliferation was quantified by the method described in the “Cell Proliferation ELISA, BrdU” kit (Roche Applied Science No. 11669915001). This is an immunological assay with luminescence detection (Genios, Tecan).
# The means of the luminescence values (RLU/s) of six wells with the same treatment condition were determined. […] Proliferation of treated cells was expressed as a percentage of the control(untreated cells−100%)(OD treated/OD control×100).
# human skin explants = test: General morphology of living human skin explants (Masson trichrome)
# Description: (§8) In particular, the following parameters were evaluated: • general skin morphology after staining with Masson trichrome, • acid glycosaminoglycan (GAG) content after alcian blue staining, • expression level of the hyaluronic acid CD44 receptor after immunolabeling of this receptor.
# (§9) Thirty-three explants (approximately 10 mm in diameter) were taken from a person (P712AB36) undergoing abdominoplasty. The explants were divided into 11 groups of three explants and placed in special skin explant survival medium.
# (§10) RetinOx+Day cream was applied on the explants at 1 mg/cm^2 on days D0, D2, D3, D6 and D8.
# (§11) On D0, D2, D3, D6 and D8, 30 μA of products P1, P2 and P3 were deposited on filter paper disks placed on the explants.
# (§12) On D0, the three explants in group CO were sampled and cut in two. One-half was fixed in ordinary Bouin's solution and the other half stored at −80° C. On D6 and D10, three explants from each group were sampled and treated in the same manner.
# After 48 hours of fixing in ordinary Bouin's solution, samples were dried and impregnated in paraffin using a Leica 1020 automated tissue processor, then embedded according to operating procedure MO-H-153 using a Leica EG 1160 embedding station. 5 μm sections were prepared according to operating procedure MO-H-173 using a Leica RM 2125 Minot microtome and mounted on Superfrost® histologic glass microscope slides.
# General morphology was studied on paraffin sections stained with Masson trichrome, Goldner variant, according to operating procedure MO-H-157.
# [4] = tested on: hyaluronic acid CD44 receptor; test: Expression of the hyaluronic acid CD44 receptor in human skin explants (immunolabeling)
# Description: as §8, §9, §10, §11, §12
# Frozen sections were labeled for the CD44 receptor using mouse anti-CD44 monoclonal antibody (Invitrogen MHC D4400) at 1:100 dilution incubated for 1 hour at room temperature with a biotin/streptavidin amplifier system with FITC. Nuclei were counterstained with propidium iodide.
compound,measurement,setting,value
"CC(=O)N[C@H]1C(O)O[C@H](COP(=O)(O)O)[C@@H](O)[C@@H]1O (some centres unmarked) [NAG6P, N-acetylglucosamine-6-phosphate]",Hyaluronic acid,"[1]; 5 mM, 48 hrs",1817.9 ± 145.1 ng/mL
same,Hyaluronic acid (ng/ml/μg prot.),"[1]; 5 mM, 48 hrs",122.1 ± 25.6 ng/ml/μg prot.
same,% stimulation of hyaluronic acid synthesis,"[1]; 5 mM, 48 hrs",73%*
same,Hyaluronic acid,"[1]; 10 mM, 24 hrs",1067.3 ± 111.9 ng/mL
same,% stimulation of hyaluronic acid synthesis,"[1]; 10 mM, 24 hrs",35%*
same,% stimulation of hyaluronic acid synthesis,"[1]; 10 mM, 24 hrs, listed as N-acetylglucosamine-6-phosphate",35%
same,Hyaluronic acid,"[1]; 10 mM, 48 hrs",2503.2 ± 552.8 ng/mL
same,Hyaluronic acid (ng/ml/μg prot.),"[1]; 10 mM, 48 hrs",165.7 ± 32.4 ng/ml/μg prot.
same,% stimulation of hyaluronic acid synthesis,"[1]; 10 mM, 48 hrs",135%**
same,% stimulation of hyaluronic acid synthesis,"[1]; 10 mM, 48 hrs, listed as N-acetylglucosamine-6-phosphate",135%
same,Hyaluronic acid,"[1]; 20 mM, 48 hrs",3076 ± 260.8 ng/mL
same,Hyaluronic acid (ng/ml/μg prot.),"[1]; 20 mM, 48 hrs",269.6 ± 55.3 ng/ml/μg prot.
same,% stimulation of hyaluronic acid synthesis,"[1]; 20 mM, 48 hrs",282%**
same,% stimulation of hyaluronic acid synthesis,"[1]; 20 mM, 48 hrs, listed as N-acetylglucosamine-6-phosphate",282%
same,Hyaluronic acid,normal human fibroblasts [2]; 5 mM on keratinocytes 48 hrs,3524.1 ± 198.6 ng/mL
same,Hyaluronic acid (ng/ml/μg prot.),normal human fibroblasts [2]; 5 mM on keratinocytes 48 hrs,401.7 ± 38.3 ng/ml/μg prot.
same,% stimulation of hyaluronic acid synthesis,normal human fibroblasts [2]; 5 mM on keratinocytes 48 hrs,7%
same,Hyaluronic acid,normal human fibroblasts [2]; 10 mM on keratinocytes 48 hrs,3507.6 ± 213.3 ng/mL
same,Hyaluronic acid (ng/ml/μg prot.),normal human fibroblasts [2]; 10 mM on keratinocytes 48 hrs,382.9 ± 20.5 ng/ml/μg prot.
same,% stimulation of hyaluronic acid synthesis,normal human fibroblasts [2]; 10 mM on keratinocytes 48 hrs,2%
same,RLU,normal human fibroblasts [3]; 5 mM on keratinocytes 48 hrs,4985 ± 184 RLU
same,RLU,normal human fibroblasts [3]; 10 mM on keratinocytes 48 hrs,4903 ± 377 RLU
same,General morphology,"human skin explants; D10, NAG6P",considerable modifications of epidermal morphology
same,General morphology,"human skin explants; D10, NAG6P 0.01% (product P3)",clear reorganization/strengthening of the dermal-epidermal junction
same,General morphology,"human skin explants; D10, NAG6P, listed as N-acetylglucosamine-6-phosphate",does not cause acanthosis
same,CD44 expression,"[4]; D6, NAG6P 0.01%",overexpression was very moderate
same,CD44 expression,"[4]; D6, NAG6P 0.1%",mildly overexpressed
same,CD44 expression,"[4]; D6, NAG6P 1%",mildly overexpressed
same,CD44 expression,"[4]; D10, NAG6P 0.01%, epidermis and papillary dermis",overexpression was very clear
